Results taken from patent publication US8697662B2, “Methods for treating Kaposi sarcoma” (PTC Therapeutics, Inc., priority 2009, dated 2014).

Columns and labels:
HT1080 xenografts = test: Time course of tumor size and plasma human VEGF in HT1080 xenografts; format: in vivo, athymic nude mice
Description: Experimental Design. HT1080 cells (5×10^6 cells/mouse) were implanted subcutaneously in male athymic nude mice.
Tumor size was measured by calipers immediately pre-treatment and at the time of sacrifice on Day 1, 2, or 3 (5 mice per group per day). At sacrifice, the plasma was collected for assay of pathologic human VEGF concentration using an ELISA that recognizes human VEGF121 and VEGF165 (as described in Section 9.1.1.1).

[1] = test system: SY5Y orthotopic xenografts; test: Orthotopic SY5Y neuroblastoma tumor model (kidney capsule), tumor weight; format: in vivo; settings: 5 weeks of treatment
Text: Experimental Design. In orthotopic tumor models, human tumor cells are implanted into the mouse in an organ that corresponds to the location from which the tumors arise. Such models may provide a better predictor of clinical efficacy than injection of tumors into the flanks of nude mice. See Hoffman, Invest. New Drugs 1999, 17(4):343-59. SY5Y neuroblastoma or SKNEP Ewing sarcoma tumor cells (1×10^6 cells/mouse) were implanted into the kidney capsule of female athymic nude mice according to published methods. See Huang et al., Proc. Natl. Acad. Sci. USA 2003, 100(13):7785-90. One week after implantation of each type of tumor, mice were divided into 2 groups and were administered a test Compound as shown in Table 21.
After 5 weeks of treatment, the mice were sacrificed, and the weights of the tumors were assessed.

[2] = Functional observation battery, 7 days oral gavage; format: in vivo, Sprague Dawley rats; settings: 40, 120, and 400 mg/kg daily oral gavage
CYP2D6 = target: T1, CYP2D6 (Homo sapiens, UniProt P10635); test: CYP inhibition in human hepatic microsomes or recombinant isoenzymes: CYP2D6; format: in vitro ADME
T1 construct: host or cells: human hepatic microsomes or human recombinant isoenzymes
T1 sequence (P10635 whole entry): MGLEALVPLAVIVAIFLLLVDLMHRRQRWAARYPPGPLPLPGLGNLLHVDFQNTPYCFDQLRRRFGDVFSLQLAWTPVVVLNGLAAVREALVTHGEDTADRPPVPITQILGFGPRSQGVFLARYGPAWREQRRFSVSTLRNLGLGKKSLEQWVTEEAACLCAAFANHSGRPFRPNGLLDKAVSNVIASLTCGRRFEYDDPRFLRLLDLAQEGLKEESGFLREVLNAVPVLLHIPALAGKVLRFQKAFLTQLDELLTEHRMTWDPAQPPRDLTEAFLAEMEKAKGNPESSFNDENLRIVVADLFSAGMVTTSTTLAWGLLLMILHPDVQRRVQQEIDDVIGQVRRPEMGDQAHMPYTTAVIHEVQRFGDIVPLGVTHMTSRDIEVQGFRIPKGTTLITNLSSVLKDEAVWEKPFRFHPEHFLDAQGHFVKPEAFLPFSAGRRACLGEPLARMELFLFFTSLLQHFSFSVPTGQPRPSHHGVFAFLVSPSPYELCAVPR
Text: (§1) It is possible that in certain clinical trial subjects, such agents may need to be adjusted for dosing or replaced by alternative agents that are not metabolized by CYP2D6, particularly when such agents may have a low therapeutic index.

CYP3A4 = target: T2, CYP3A4 (Homo sapiens, UniProt P08684); test: CYP inhibition in human hepatic microsomes or recombinant isoenzymes: CYP3A4; format: in vitro ADME
T2 construct: host or cells: human hepatic microsomes or human recombinant isoenzymes
T2 sequence (P08684 whole entry): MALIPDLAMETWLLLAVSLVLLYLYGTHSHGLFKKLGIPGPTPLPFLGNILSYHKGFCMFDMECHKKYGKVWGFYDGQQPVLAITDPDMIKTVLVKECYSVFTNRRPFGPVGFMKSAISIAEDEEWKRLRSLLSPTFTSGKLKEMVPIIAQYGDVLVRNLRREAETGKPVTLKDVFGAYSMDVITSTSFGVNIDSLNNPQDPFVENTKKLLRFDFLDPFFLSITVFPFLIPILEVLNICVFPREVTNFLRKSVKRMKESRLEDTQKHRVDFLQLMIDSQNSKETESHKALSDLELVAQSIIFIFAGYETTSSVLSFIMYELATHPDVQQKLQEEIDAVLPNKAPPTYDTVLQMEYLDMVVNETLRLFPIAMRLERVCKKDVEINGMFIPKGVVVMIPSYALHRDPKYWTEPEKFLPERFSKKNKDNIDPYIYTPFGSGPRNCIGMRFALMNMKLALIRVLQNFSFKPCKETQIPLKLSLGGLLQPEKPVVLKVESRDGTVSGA
Text: as §1

[3] = Single-dose oral toxicity study in rats; settings: Sprague Dawley, rat, in vivo, 1 day
Description: (§2) A battery of genotoxicity studies was also performed. […] The L23 vehicle was used.
Because maximal exposure occurred at 100 mg/kg, this dose is considered the NOAEL for 1 day of dosing.

[4] = 7-day oral toxicity study in rats; settings: Sprague Dawley, rat, in vivo; for NOAEL at 7 days: oral gavage
Description: as §2
Maximal exposures occurred at a dose of 120 mg/kg/day.

[5] = 7-day oral toxicity study in dogs; format: in vivo
Kaposi Sarcoma lesions = test: Patients with Kaposi Sarcoma: cutaneous lesion size and quantity; format: in vivo, human
Description: Subjects with HIV-associated KS may receive continuous daily treatment with a Compound being administered BID for up to 48 weeks. […] Response rate of HIV-associated KS to a Compound is an indicator of efficacy.
Compound Administration: Subjects may be administered a Compound at the following dose levels: 40 mg/dose BID, 80 mg/dose BID, and 100 mg/dose BID. A Compound may be orally administered each day on a BID schedule at approximately the same times each day. Ideally, doses should be taken at ˜12-hour intervals (e.g., at ˜7:00 AM and at ˜7:00 PM). If convenient for the subject, the drug may be taken during or within ˜30 minutes after a meal; however, administration with food is not required. Subjects may continue receiving repeated 4-week cycles of a Compound indefinitely or until termination. Compound administration may be terminated because of, e.g., tumor progression or other progression of KS, or a dose-limiting toxicity.
A medical history should be done within 21 days of administration of a Compound and may be done during the treatment course with a Compound (e.g., the first day of every 4 week cycle) and following such treatment. The medical history may include the following information: • 1. Previous HIV-related and non-HIV related diagnoses. • 2. […] For subjects with <50 total skin and oral lesions, all lesions should be evaluated for changes in number and characteristics. […]

For `COc1ccc(C2c3[nH]c4ccc(Cl)cc4c3CCN2C(=O)Oc2ccc(Cl)cc2)cc1` (racemic) [Compound #10], the “pathologic plasma human VEGF concentrations (in words)” value (HT1080 xenografts; Days 2 and 3, 10 mg/kg oral QD) was “continued to decline”, the “pathologic plasma human VEGF levels (in words)” value (HT1080 xenografts; by Day 1) was “numerically lower than in control animals” and the “reducing tumor derived plasma VEGF levels, comparison (in words)” value (HT1080 xenografts; by Day 3 of treatment) was “as active as bevacizumab and more effective than doxorubicin”. For the same molecule, the “tumor growth (tumor weight) (in words)” value [1] was “completely prevented growth”, the “behavioral or neurological effects (functional observation battery)” value [2] was “no adverse behavioral or neurological effects” and the “inhibition of CYP2D6 isoenzyme (in words)” value (CYP2D6) was “inhibits the activity”. The “inhibition of CYP3A4 (in words)” value (CYP3A4) was “No meaningful inhibition”, the “dose at which maximal exposure occurred” value [3] was 100 mg/kg and the “dose at which maximal exposures occurred” value ([4]; 7 days) was 120 mg/kg/day. It also gave an NOAEL at 7 days ([4]; female, read-out: NOAEL for 7-days, female rats) of 120 mg/kg/day, an NOAEL at 7 days ([4]; male, read-out: NOAEL for 7-days, male rats) of 40 mg/kg/day and an NOAEL at 7 days ([5]; both sexes, beagle, dog, in vivo, dogs, oral capsules) of 60 mg/kg/day. For the same molecule, the “dose at which exposures were maximal” value ([5]; dogs, 10, 30, or 60 mg/kg/dose BID, 7 days) was 30 mg/kg/dose BID, the treatment-related clinical finding ([5]; dogs, males and females, 10, 30, or 60 mg/kg/dose BID, 7 days) was “increased incidence and frequency of soft stools” and the “NOAEL for 7-days” value ([5]; dogs, oral capsules) was 30 mg/kg/dose BID. For the same molecule, the “lesion size (in words)” value (Kaposi Sarcoma lesions; patients with Kaposi Sarcoma (FIG. 34)) was “reduced” and the “reduction in the number of raised lesions” value (Kaposi Sarcoma lesions; patients with Kaposi Sarcoma labeled PR (FIG. 34)) was at least 50%.
